According to patent US8546338B2, “Self-assembling hydrogels based on dicephalic peptide amphiphiles” (Johnson & Johnson Consumer Companies, Inc., priority 2010, dated 2013):
Where a SMILES comes first, the peptide text is derived from it. Where no end group is shown, it is not given here. The star is where a group is joined. Palmitoyl = CCCCCCCCCCCCCCCC(=O)*

Assays:
Assay type in all cases: physicochemical
[1] = Gelation experiments: inversion test for self-supporting hydrogels; conditions: for Gelation (self-supporting gel on inversion), DMEM: DPA solution in water mixed 1:1 with DMEM; for Gelation (self-supporting gel on inversion), DMEM / Concentration at which gel forms, DMEM: no calcium added; for Gelation (self-supporting gel on inversion), PBS / Gelation (self-supporting gel on inversion), Water: final concentrations 1, 2 and 4 weight percent tested; for Concentration at which gel forms, DMEM: mixed with DMEM; for Gelation (self-supporting gel on inversion), Calcium added: DMEM plus 10 μl of 100 mg/cc calcium chloride solution
Description: Inversion tests were performed to determine qualitatively under which conditions the various DPAs formed self-supporting hydrogels. The various types of DPAs were tested by dissolving them in ultrapure water (>18 MΩ resistivity) at double the desired final concentration followed by mixing in a 1:1 ratio with different liquid mediums. Gelation was deemed to have occurred if the gel supported its own weight upon inverting the vial (FIG. 3A and FIG. 3B). Gelation was tested at final concentrations of 1, 2 and 4 weight percent. We tested phosphate buffered saline (PBS), and Dulbecco's modified eagle media (DMEM) as liquid medium. Typical scale is 100 μl each of DPA solution in water and mixing medium but other scales have been tested. Finally, if no spontaneous gelation occurs, 10 μl of 100 mg/cc calcium chloride solution was added to induce gelation.

[2] = Oscillating rheology, time sweep (kinetics of formation); conditions: for Gel point after mixing: 2 wt % gels in DMEM
Description: (§1) Oscillating rheology by the parallel plates method (radius=25 mm) was performed on 400 μl gels to assess the mechanical strengths of gels. Time sweeps were performed to evaluate kinetics of formation at a constant strain rate of 1% and frequency of 1 rad/s. Strain sweeps were performed ranging from 1-100% strain in increments of 2% at a constant frequency of 1 rad/s. Cross-over of G′ and G″ was used to determine the gel point and point of breakdown. Time sweeps were initiated immediately after mixing the solutions that lead to DPA hydrogel formation. In the strain sweeps, the gels were allowed to form on the plate for 30 minutes before the measurement is initiated.
The gelation process was initiated on the plate at 25° C. by the addition of 10 μl of 100 mg/ml calcium chloride solution to a solution of the DPA in DMEM.

[3] = Oscillating rheology, strain sweep; conditions: 2 wt % gels in DMEM
Description: as §1
Strains sweeps were performed on 2 wt % Gly-Phe-Gly-Phe-Gly-Phe-Gly-Gln-Gln-Ser (SEQ ID NO: 8), Gly-Phe-Gly-Phe-Gly-Phe-Gly-Gln-Gly-Ser (SEQ ID NO: 12) and Gly-Phe-Gly-Phe-Gly-Phe-Gly-Asn-Asn-Ser (SEQ ID NO: 11) gels in DMEM (FIG. 8). Gels were allowed to form for 30 minutes before the experiment was initiated.

[4] = listed as linear peptide amphiphile analogue

Compound	Gelation (self-supporting gel on inversion), DMEM [1]	Concentration at which gel forms, PBS ([1]; PBS) [%]	Gelation (self-supporting gel on inversion), PBS ([1]; PBS)	Gelation (self-supporting gel on inversion), Water ([1]; in water)	Concentration at which gel forms, DMEM [1] [%]	Gel point after mixing [2]	Strain at which gel re-crosses the transition point (breakdown) ([3]; formed for 30 minutes) [% strain]	Gelation (self-supporting gel on inversion), Calcium added [1]	further results
CCCCCCCCCCCCCCCC(=O)NC(C(=O)NCC(=O)N[C@@H](Cc1ccccc1)C(=O)NCC(=O)N[C@@H](Cc1ccccc1)C(=O)NCC(=O)N[C@@H](Cc1ccccc1)C(=O)NCC(=O)N[C@@H](CCC(N)=O)C(=O)NCC(=O)N[C@@H](CO)C(=O)O)C(=O)NCC(=O)N[C@@H](Cc1ccccc1)C(=O)NCC(=O)N[C@@H](Cc1ccccc1)C(=O)NCC(=O)N[C@@H](Cc1ccccc1)C(=O)NCC(=O)N[C@@H](CCC(N)=O)C(=O)NCC(=O)N[C@@H](CO)C(=O)O [Gly-Phe-Gly-Phe-Gly-Phe-Gly-Gln-Gly-Ser]	Yes,	2	Yes,	No	2	instantaneous	99		Gelation characteristics, qualitative comparison ([1]; compared to the SEQ ID NO: 8 DPA): formed more rapidly and appears to be stronger; Strain at which gel re-crosses the transition point (breakdown) ([3]; formed for 30 minutes, listed as Gln-Gly-Ser (SEQ ID NO: 30)): ~100 % strain
CCCCCCCCCCCCCCCC(=O)NC(C(=O)NCC(=O)N[C@@H](Cc1ccccc1)C(=O)NCC(=O)N[C@@H](Cc1ccccc1)C(=O)NCC(=O)N[C@@H](Cc1ccccc1)C(=O)NCC(=O)N[C@@H](CC(N)=O)C(=O)N[C@@H](CC(N)=O)C(=O)N[C@@H](CO)C(=O)O)C(=O)NCC(=O)N[C@@H](Cc1ccccc1)C(=O)NCC(=O)N[C@@H](Cc1ccccc1)C(=O)NCC(=O)N[C@@H](Cc1ccccc1)C(=O)NCC(=O)N[C@@H](CC(N)=O)C(=O)N[C@@H](CC(N)=O)C(=O)N[C@@H](CO)C(=O)O [Gly-Phe-Gly-Phe-Gly-Phe-Gly-Asn-Asn-Ser]	Yes,	4	Yes,	Yes,	2	instantaneous	42		Concentration at which gel forms, Water ([1]; in water): 2%; Rheological properties in kinetics of formation experiment, comparison ([2]; polar, non-charged solubility enhancing regions compared): highest rheological properties; Initial strength in strain sweep, comparison [3]: highest initial strength; Strain at which decline in properties starts ([3]; formed for 30 minutes): 15 % strain; Strain at which gel re-crosses the transition point (breakdown) ([3]; formed for 30 minutes, listed as Asn-Asn-Ser (SEQ ID NO: 29)): 40 % strain
CCCCCCCCCCCCCCCC(=O)NC(C(=O)NCC(=O)N[C@@H](Cc1ccccc1)C(=O)NCC(=O)N[C@@H](Cc1ccccc1)C(=O)NCC(=O)N[C@@H](Cc1ccccc1)C(=O)NCC(=O)N[C@@H](CC(N)=O)C(=O)NCC(=O)N[C@@H](CO)C(=O)O)C(=O)NCC(=O)N[C@@H](Cc1ccccc1)C(=O)NCC(=O)N[C@@H](Cc1ccccc1)C(=O)NCC(=O)N[C@@H](Cc1ccccc1)C(=O)NCC(=O)N[C@@H](CC(N)=O)C(=O)NCC(=O)N[C@@H](CO)C(=O)O [Gly-Phe-Gly-Phe-Gly-Phe-Gly-Asn-Gly-Ser]	Yes,		No	No	2				
GFGFGFGQQS-OH [Gly-Phe-Gly-Phe-Gly-Phe-Gly-Gln-Gln-Ser, reference compound]	No		No	No				No	Gelation under all conditions tested ([1]; 2-4 wt %, water, PBS, DMEM and DMEM plus calcium): did not form any gels
CCCCCCCCCCCCCCCC(=O)NCC(=O)N[C@@H](Cc1ccccc1)C(=O)NCC(=O)N[C@@H](Cc1ccccc1)C(=O)NCC(=O)N[C@@H](Cc1ccccc1)C(=O)NCC(=O)N[C@@H](CCC(N)=O)C(=O)N[C@@H](CCC(N)=O)C(=O)N[C@@H](CO)C(=O)O [reference compound] (Palmitoyl-GFGFGFGQQS-OH)	No		No	No				Yes,	Gelation (self-supporting gel on inversion), Calcium added [1, 4]: could be gelled; Concentration at which gel forms, Calcium added ([1]; DMEM with calcium chloride added): 2%; Gelation (self-supporting gel on inversion), DMEM [1, 4]: did not form gels; Gelation (self-supporting gel on inversion), PBS ([1]; PBS, listed as linear peptide amphiphile analogue): did not form gels; Gelation (self-supporting gel on inversion), Water ([1]; in water, listed as linear peptide amphiphile analogue): did not form gels
